Results reported in the NIST ThermoML archive (doi:10.1007/s10765-010-0725-9).
Several values for one entry are separate records, joined by “and”; a condition that tells them apart may be missing. Equal entries are not always repeated.

What was measured:
[1] = wn = mass fraction of the nth substance listed; settings: Pendant drop shape
[2] = Pendant drop shape

O=S(=O)([O-])[O-].[Na+].[Na+] [sodium sulfate] + O
surface tension liquid-gas [mN/m], [1]
Settings | 303.15 K | 313.15 K | 323.15 K | 333.15 K
w1 = 0.04 | 71.53 | 70.7 | 68.8 | 67.27
w1 = 0.1 | 73.56 | 71.88 | 70.5 | 69.11
w1 = 0.14 | 74.02 | 72.82 | 71.65 | 69.93
w1 = 0.18 | 76.28 | 74.97 | 73.22 | 71.4

[Cl-].[K+] [potassium chloride] + O
surface tension liquid-gas [mN/m], [1]
Settings | 303.15 K | 313.15 K | 323.15 K | 333.15 K
w1 = 0.1 | 71.58 | 69.86 | 67.57 | 66.39
w1 = 0.14 | 72.12 | 70.64 | 69.15 | 66.16
w1 = 0.18 | 76.78 | 75.23 | 74.65 | 71.44

[Ca+2].[Cl-].[Cl-] [calcium chloride] + O
surface tension liquid-gas [mN/m], [1]
Settings | 303.15 K | 313.15 K | 323.15 K | 333.15 K
w1 = 0.04 | 72.74 | 70.84 | 69.62 | 67.62
w1 = 0.1 | 74.59 | 72.56 | 70.38 | 68.56
w1 = 0.14 | 76.08 | 73.65 | 71.52 | 70.63
w1 = 0.18 | 77.53 | 74.89 | 73.25 | 71.87

[Cl-].[Na+] [sodium chloride] + O
surface tension liquid-gas [mN/m], [1]
Settings | 303.15 K | 313.15 K | 323.15 K | 333.15 K
w1 = 0.04 | 71.44 | 70.66 | 68.25 | 67.31
w1 = 0.1 | 73.42 | 71.81 | 70.97 | 69.74
w1 = 0.14 | 76.09 | 74.6 | 72.47 | 71.83
w1 = 0.18 | 77.04 | 74.73 | 73.38 | 71.44

O [water]
[2]
Settings | surface tension liquid-gas
303.15 K | 71.54 mN/m and 72.12 mN/m and 71.58 mN/m
313.15 K | 70.64 mN/m and 68.96 mN/m and 69.86 mN/m
323.15 K | 69.15 mN/m and 67.83 mN/m and 67.57 mN/m
333.15 K | 66.16 mN/m and 66.39 mN/m
343.15 K | 65.39 mN/m and 65.8 mN/m and 64.73 mN/m
